Assay results taken from patent US20070197591A1, “USE OF PALIPERIDONE FOR THE TREATMENT OF A MENTAL DISORDER IN A PSYCHIATRIC PATIENT WITH REDUCED HEPATIC FUNCTION” (priority 2005, published 2007).

What was measured:
[1] = Plasma protein binding / unbound fraction of paliperidone and its enantiomers; type: in vitro ADME, human
Text: Objectives: The primary objective of this study was to investigate the single-dose pharmacokinetics of immediate-release (IR) paliperidone, after oral administration, in subjects having moderate hepatic impairment (“hepatically-impaired subjects”) compared with subjects having normal hepatic function (“healthy subjects”). The secondary objective was to document the plasma protein binding and disposition of the enantiomers of paliperidone. In addition, the tolerability and safety profile of IR paliperidone was compared between hepatically impaired subjects and healthy subjects. Criteria for Evaluation: Pharmacokinetics: Plasma and urine concentrations of the paliperidone enantiomers (+) R078543 and (−) R078544 were determined using an LC-MS/MS method. Concentrations of paliperidone were calculated as the sum of the enantiomer concentrations. In addition, serum and urine concentrations of creatinine were determined for the calculation of CLCR. The protein binding and unbound fraction was determined for the 2 paliperidone enantiomers. The unbound fraction for paliperidone was calculated.

[2] = Safety and tolerability, single oral 1-mg ^14C-paliperidone in healthy men; type: in vivo, human
Description: Safety: Evaluation was based on the incidence, type, and severity of all treatment-emergent adverse events, and on change from screening to the end of the study in clinical laboratory results, vital sign measurements, and postural changes in blood pressure and heart rate.
Safety: The number of subjects with adverse events was summarized. Summary statistics were calculated for clinical laboratory values. Other safety data were listed by individual sect. Changes in blood pressure and heart rate measurements were also presented graphically.

clinical = assay: clinical; design: species or system human; conditions: human, in vivo
Text: Objectives: to investigate the metabolic pathways of paliperidone and excretion of paliperidone and its metabolites in healthy adult male subjects, both CYP2D6 poor and extensive metabolizers, after administration of a single 1-mg oral dose of ^14C-paliperidone. In addition, to evaluate the safety and tolerability of paliperidone, as well as the relationship between genotypes (CYP2D6, CYP3A4, CYP3A5, UGT1A1, and UGT1A6) and exposure to paliperidone and its metabolites.
Methodology: Single-center, single-dose open-label study of the absorption, metabolism, and excretion (AME) of paliperidone in healthy men (3 extensive and 3 poor metabolizers based on CPY2D6 phenotype). […] Each subject received a single oral dose of ^14C-paliperidone with total radioactivity below […] (16 μCi). Blood samples for plasma pharmacokinetic profile were obtained immediately before study drug administration and 0.5, 1, 1.5, 3, 6, 12, 16, 36, 48, 72, 96, 120, 144 and 168 hours postdose. Blood samples were obtained 2, 4, 8, and 24 hours postdose for determination of ^14C in whole blood. Samples for determination of serum creatinine were obtained 2, 4, 8, and 24 hours postdose. Urine was collected immediately prior to drug administration and from 0-4, 4-8, 8-12, 12-16, 16-24, 24-36, 36-48, 48-72, 96-120, 120-144, and 144-168 hours after study drug administration. Fecal samples were colleted per each stool, once before study drug administration and in the period from 0-168 hours after study drug administration. Collections of urine and feces (per 24 hours) were to continue beyond 168 hours, to a maximum of 336 hours (Day 15) for subjects who excrete radioactivity slowly (2 latest 24-hour urine collections each >2% of total radioactive dose) or have <7 feces stool samples over the 0 to 168-hour period. ^14C radioactivity was measured in plasma, urine, and feces. Aliquots of the 0- through 24-hour urine collections were analyzed for cretinine. Plasma concentrations of paliperidone and risperidone were determined by means of a validated LC-MS/MS method. The ^14C-labeled moiety in plasma and urine was determined by liquid scintillation counting. For all plasma samples, the lower limits of quantification for paliperidone and risperidone were 0.100 ng/mL. For all plasma and urine samples the lower limits of quantification for ^14C-palieridone was 72 dpm/mL (=2.0 n g-eq/mL).
Number of Subjects (Planned and Analyzed): Six healthy men, 3 extensive and 3 poor metabolizers based on CYP2D6 phenotype were to participate in the study. Five subjects, 3 extensive and 2 poor metabolizers, received a single dose of ^14C-paliperidone, completed the study (i.e., completed all assessments through Day 8) and were considered valuable for safety (the Safety Analysis Set), as well as for pharmacokinetics.
Test Product, Dose and Mode of Administration Batch No.: Single oral 0.988-mg dose of ^14C-paliperidone, oral solution (aqueous formulation at a final concentration of 0.0984 mg/mL). Batch No.: unlabeled paliperidone oral solution: ZR076477EIA031 (manufacturing date: 23 Apr. 2003, retest date: 23 Oct. 2004): ^14C-paliperidone: 1763 (expiration date: not applicable)
Criteria for Evaluation: Pharmacokinetics: Plasma paliperidone. ^14C radioactivity and metabolite profiles were determined. Plasma Cmax, tmax, AUClast, AUC24, AUC∞, λZ, t1/2term, CL/F of ^14C and paliperidone were estimated by non-compartmental analysis. Based on the individual urine excretion data and on the serum creatinine concentrations, Ae, Ae, % dose, CLR, CLR,24h and CLer and paliperidone and CLGFR, and CLact of paliperidone were estimated. The excretion half-life of ^14C in urine was also estimated based on excretion rate-time profiles.
Statistical Methods: Pharmacokinetics: Plasma concentrations of ^14C and paliperdone as well as estimates for pharmacokinetic parameters were listed and graphically presented, and the excretion analysis of total radioactivity in plasma, urine and feces were summarized. […]

[3] = Hepatically-Impaired Subjects (n = 10; paliperidone n = 8)

| Unbound Fraction ([1]; Healthy Subjects (n = 10)) | Unbound Fraction [1, 3] | Compound | deaths, serious adverse events ([2]; 5 healthy men, single oral 1-mg dose) | changes in laboratory test results ([2]; in vivo, po) | overall safety and tolerability ([2]; in vivo, po) | subjects with treatment-emergent adverse events ([2]; in vivo, po) | AUC∞ (clinical) [ng-eq.h/mL] |
| --- | --- | --- | --- | --- | --- | --- | --- |
| 0.385 ± 0.0416 | 0.457 ± 0.0504 | Cc1nc2n(c(=O)c1CCN1CCC(c3noc4cc(F)ccc34)CC1)CCCC2O (single isomer, unassigned; (-)) [(−) R078544] | – | – | – | – | – |
| – | – | ^14C-paliperidone | no deaths, no serious adverse events | no clinically relevant changes | safe and well tolerated | Two of the 5 subjects | 175 |
| 0.215 ± 0.0469 | 0.306 ± 0.0687 | Cc1nc2n(c(=O)c1CCN1CCC(c3noc4cc(F)ccc34)CC1)CCC[C@H]2O [(+) R078543] | – | – | – | – | – |
